We go through 1 sequence from US10854312B2, “Selective peptide antagonists” (BIONIZ, LLC, priority 2013, dated 2020).

Holding throughout (assay type): cell-based
For one test, the system named is IL-2, -15 and -9. As to the kind of experiment: Inhibition of IL-2, -15 and -9 in human NK92 cell line and ex vivo human T cells. The method, then: Human peripheral blood mononuclear cells were purified by the Ficoll-paque gradient centrifugation (GE-Healthcare) and stimulated by PHA (5 μg ml^−1, Sigma) for 48 h, then expanded with IL-2 (0.5 nM, Peprotech) for 48h, and then depleted of non-T cells by the Pan-T cell negative enrichment Ab cocktails (Miltenyi). The purified T cells were then fasted of IL-2 overnight prior to the proliferation assay by the tetrazolium dye method. Four hundred thousand cells (in 200 μl culture) were incubated with the cytokines and BNZ132-1 at the indicated concentrations for 24 h, and 20 μl WST1 reagent (Clontech) was added to each well. After 12 h incubation, OD450 was measured. The assay was performed in triplicate. […] NK 92 cells were cultured in human IL-2. Cells were washed to withdraw IL-2 for overnight and two hundred thousand cells (in 200 μl volume) were incubated with the indicated concentrations of the cytokine and BNZ132-1 for 24 h before 20 μl WST-1 reagent (Clontech) was added to each well to measure proliferative response. Absorbance at 450 nm was read at 6 h after the addition of the WST-1 dye. The assay was performed in triplicate. The assay was performed in triplicate and the figure represents a typical result out of 5 different HAM-TSP patients.
Next, the biochemical aspects of the BNZ132-1 inhibition of target cytokines were investigated. […]

The subject of the next test is human IL-15. As to the kind of experiment: CTLL-2 proliferation assay (WST-1), IL-15. To be noted: murine CTLL-2 cells, 1 nM human IL-15, BNZ132-1 50 and 500 nM, WST-1 OD450. The method, then: (§1) FIG. 6A-FIG. 6E presents inhibitory spectrum of BNZ132-1 over γc- and non-γc-cytokines. […] Neutralizing antibodies against each cytokine (R & D systems, 5 μg ml^−1) were included as controls. After 20 h, the cells were pulsed with WST-1 (Clontech) and OD450 of each well was measured after 6 h. A 19-mer scrambled peptide was used as a negative control at 5 μM. The experiments were conducted in triplicate (applies to all experiments in FIG. 6A-FIG. 6E). The result represents one of at least three independent experiments (applies to all experiments in FIG. 6A-FIG. 6E). […] In PT-18 proliferation assay, PT-18β or PT-18h21Rα cells were withdrawn of mouse IL-3 for 12 h before the experiment. Cells were then incubated with 1 nM of mouse IL-4, mouse IL-9, or mouse IL-21 in the presence or absence of the indicated doses (μM) of BNZ132-1. Neutralizing antibodies to each cytokine (5 μg ml^−1, except for anti-mouse IL-21 polyclonal antibody which was used at 15 μg ml−1) and a scrambled control peptide (5 μM) were included as negative controls. WST-1 assay was conducted as described above. […] In PT-18 h21Rα survival assay, PT-18h21Rα cells are described in the text. […] Both parental and hIL-21Rα positive PT-18 cells were washed and incubated without IL-3 for 12 h before the assay. […] The Y-axis represents the cpm (count per minute) values measured by a β-counter. […]
(Tetrazolium assays rely on reduction of a dye to a coloured formazan, in cell work by metabolically active cells.)

For the next test, the system named is human IL-2. Description: CTLL-2 proliferation assay (WST-1), IL-2. To be noted: murine CTLL-2 cells, 1 nM human IL-2, BNZ132-1 50 and 500 nM, WST-1 OD450. Here is the method:
as §1

For another test, the target named is mouse GM-CSF (Mus musculus, UniProt P01587). As to the kind of experiment: PT-18β proliferation assay (3H-thymidine), non-γc cytokine GM-CSF. Particulars: 1 nM mouse GM-CSF, 15 μM BNZ132-1.
Sequence of mouse GM-CSF (P01587 18-141): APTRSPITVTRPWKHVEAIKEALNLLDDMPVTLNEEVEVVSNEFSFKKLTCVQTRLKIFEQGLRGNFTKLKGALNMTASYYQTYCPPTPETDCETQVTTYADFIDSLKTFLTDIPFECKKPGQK

“Also recorded” adds a separate entry of the source. No end group written: not given here.

For the sequence IKEFLQRFIHIVQSIINTS [BNZ132-1], the Ki in the test with IL-2, -15 and -9 (approximate, from the inhibitory concentrations (Cheng-Prusoff), read-out: binding affinity of BNZ132-1 to target cells) lay within 10 to 60 nM. Besides, the IC50 with IL-2, -15 and -9 (human NK92 cell line and ex vivo human T cells, read-out: concentration at which IL-2, -15 and -9 are inhibited) was 50 to 150 nM. Moreover, the “inhibition of IL-15-induced proliferation of CTLL-2 cells” value in the test on human IL-15 was “inhibited IL-2 and IL-15 with an equal efficacy; also recorded: efficiently inhibits; also recorded: inhibition of IL-2 and IL-15”. In addition, the “inhibition of IL-2-induced proliferation of CTLL-2 cells” value in the test on human IL-2 is “inhibited IL-2 and IL-15 with an equal efficacy; also recorded: efficiently inhibits; also recorded: inhibition of IL-2 and IL-15”. The “inhibition of GM-CSF-induced proliferation of PT-18β cells” value against mouse GM-CSF is “did not inhibit; also recorded: no inhibition; also recorded: no inhibition of non-γc cytokines”.
